Data set [1] deals with Pseudomonas Aeruginosa (PS). Description: Agar plate antibacterial test (Example 3). The settings on record: liquid added to hollow circle of seeded agar plate, FIG. 3.
Procedure: (§1) A 1M solution of potassium nitrite was prepared by diluting 8.51 g of KNO2 in 100 ml of distilled water. 17.612 g of ascorbic acid was diluted in 100 ml of distilled water to form a 1M solution. The three stock solutions were prepared a few minutes prior to the experiments.
(§2) A volume of NaNO2 and an equal volume of KNO2 were mixed with twice the volume of ascorbic acid in a sterile container to produce an “oxides of nitrogen” containing solution. A reaction between the nitrites and the acid occurred instantly. The gas produced was released and 2 ml of the premixed liquid (0.25M) was added to 20 ml of distilled water to give a final concentration of the solution of 1.25 mM.
(§3) Separate samples of NaNO2, KNO2 and ascorbic acid were also prepared as described above.
(§4) An overnight culture of bacteria was prepared by inoculating 20 ml of LB (Luria-Bertani 10 g Bacto-tryptone, +5 g Bacto-yeast extract, +10 g sodium chloride per liter, at pH 7.5) broth with 2 to 3 colonies, and incubating at 37° C. overnight. Broth cultures containing approximately 109 organisms were produced. Bacteria were diluted 1:1000 using phosphate buffer saline (PBS) and 100 μl of diluted broth cultures were seeded on the Brain-Heart agar plates. Prior to seeding bacteria on to the surface of the agar plates a piece of agar (approximately 70 mm in diameter) from the centre of the plates was removed. […]
For data set [2], the system named is Coagulase negative Staphylococcus (CNS). Description: Agar plate antibacterial test (Example 4). The conditions noted are these: liquid added to hollow circle of seeded agar plate, FIG. 4.
Procedure: as §1, §2, §3, §4
Data set [3] has as its system Candida Albicans (CA). Description: Agar plate antibacterial test (Example 2). The settings on record: liquid added to hollow circle of seeded agar plate, FIG. 2.
Procedure: as §1, §2, §3, §4
For data set [4], the system named is Methicillin Resistant Staphylococcus Aureus (MRSA). Description: Agar plate antibacterial test (Example 1). The conditions noted are these: liquid added to hollow circle of seeded agar plate, FIG. 1.
Procedure: as §1, §2, §3, §4
Data set [5] shares this test system. Description: Agar plate exposed to gaseous NO in a closed box (Example 5). The format is cell-based. The conditions noted are these: overnight incubation in closed box with NO gas, FIG. 5. As to the method: A Methicillin Resistant Staphylococcus Aureus (MRSA) culture was produced in the same manner as for Examples 1 to 4. The agar plate was placed in a polystyrene box. Gaseous NO was produced by reacting 10 ml 1M ascorbic acid with 5 ml 1M NaNO2 and 5 ml 1M KNO2 in the box and the lid of the box replaced immediately, followed by overnight incubation of the culture.

Data set [6] can be described thus: pH change on addition of L-ascorbic acid to sodium nitrite (Examples 16 and 17). Format: physicochemical. The conditions noted are these: 1M sodium nitrite in normal saline, before acid addition. As to the method: The pH change was measured when L-ascorbic acid was added to sodium nitrite incrementally and as a single addition.
Analytical grade (>99% purity) sodium nitrite (NaNO2) and L-ascorbic acid (C6H8O6) from Sigma-Aldrich, UK were used. Saline (0.9% wv of NaCl) was from Baxter Healthcare-UK was also used.
Normal saline was used as solvent in the preparation of the solutions of sodium nitrite and ascorbic acid. All solutions were prepared at room temperature (22-25° C.) in lots of 25 or 50 ml and were used within 10-20 days. Stock solutions were kept in airtight vessels away from light.
All pH measurements of the solutions were carried out with a Wissenschaftlich-Technische Werkstätten (WTW) pH meter, model pH340i along with a SenTix 20 pH combination electrode incorporating a thermocouple. The electrode was calibrated with freshly prepared buffer calibrating solutions (pH 7.00 and 4.00±0.002). Calibrating solutions were prepared from ALDRICH Tri-check buffer capsules, Aldrich, USA.
The pH of the solutions was measured with the addition of a standard magnetic stir bar operating at 60 rpm. At least 12 ml of solutions were used to ensure that the electrode was completely immersed. 1M solutions of sodium nitrite and ascorbic acid were prepared using normal saline as solvent. In Example 16, 1 ml of acid was added to the nitrite every 10 minutes. […]

Regarding `O=C1O[C@H]([C@@H](O)CO)C(O)=C1O` [A, ascorbic acid], the “bacterial colonies on agar plate” value in data set [1], in data set [2], in data set [3] and in data set [4] was “large amount of bacteria” in each case.
Regarding `[N]=O` [Gaseous NO, nitric oxide], the “visible bacterial cultures on agar plate” value in data set [5] is reported as “no remaining visible bacterial cultures”.
Take `O=NO` [sodium nitrite solution, sodium nitrite]: the “initial pH” value in data set [6] is given as “approximately 7.35”.
